System: α7 integrin promoter
Test: muscle cell-based assay: α7βgal+/− myoblasts/myotubes, LacZ reporter, β-galactosidase cleavage of FDG
Set-up: species or system mouse; Results in α7+/− β-galactosidase assay: scale not given here
Conditions: for Results in α7+/− β-galactosidase assay: Myoblasts; for AC50 / Fit HillSlope / Fit Zero Activity [%] / Fit Curve Class: Table 12; for AC50: log of AC50, given with negative sign, unit of AC50 not given, read-out: Fit Log AC50 (converted); for Fit HillSlope: curve fit; for Fit Zero Activity [%]: fitted activity at zero concentration; for Fit Curve Class: key not given; for Score: Table 12 Compound data, concentration-response curve fit
How it was run: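 Fluorescein generated from FDG by β-galactosidase reports α7 integrin promoter activity in differentiated myoblasts from α7+/− LacZ knock-in pups. Screening hits then went to dose-response, western blotting and a myostatin counterscreen.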

Row | Structure (SMILES) | Results in α7+/− β-galactosidase assay (0.5 uM) | Results in α7+/− β-galactosidase assay (1 uM) | Results in α7+/− β-galactosidase assay (5 uM) | Results in α7+/− β-galactosidase assay (10 uM) | Results in α7+/− β-galactosidase assay (20 uM) | Results in α7+/− β-galactosidase assay (40 uM) | also measured
1 | Cc1ccsc1CN(C)CC(=O)Cc1ccc([N+](=O)[O-])cc1Cl [drawing 473] |  |  |  |  |  |  | Results in a α7+/− β-galactosidase assay, Myotubes, 0.5 uM (Myotubes, compound at 0.5 uM): −0.05036; Results in a α7+/− β-galactosidase assay, Myotubes, 1 uM (Myotubes, compound at 1 uM): −0.06852; Results in a α7+/− β-galactosidase assay, Myotubes, 5 uM (Myotubes, compound at 5 uM): −0.2581; Results in a α7+/− β-galactosidase assay, Myotubes, 10 uM (Myotubes, compound at 10 uM): −0.2695; Results in a α7+/− β-galactosidase assay, Myotubes, 20 uM (Myotubes, compound at 20 uM): −0.1438; Results in a α7+/− β-galactosidase assay, Myotubes, 40 uM (Myotubes, compound at 40 uM): −0.2052
2 | O=C1c2ccccc2C(=O)C1(CC(O)O)c1ccccc1 [drawing 682] | 0.2496 | 0.3517 | −0.03545 | −0.1644 | −0.1709 | −0.2409 | 
3 | CCOC(=O)C1=C(NC(=O)c2ccc(OC)c(S(=O)(=O)N3CCCCC3C)c2)Nc2ccccc2N=C1CC (stereo not shown) [drawing 637] | 0.1194 | 0.007377 | −0.06112 | −0.01618 | −0.4913 | −0.6556 | 
4 | Cc1ccccc1S(=O)(=O)N1C[C@H]2CON(C)[C@H]2C[C@H]1c1cccc(-c2ccccc2)c1 [drawing 644] | 0.06241 | 0.06141 | 0.04452 | 0.08987 | −0.2419 | −0.2934 | 
5 | CCCn1c(-c2cc(OC)c(OC)c(OC)c2)nc2c1c(=O)[nH]c(=O)n2Cc1ccccc1 [Compound 54] |  |  |  |  |  |  | AC50 (Mus musculus): 12.6 µM; Fit HillSlope: 1.1341; Fit Zero Activity [%]: 39.3368%; Fit Curve Class: 2.1; Score: 45
6 | Cc1nc(/C=C2\C(=O)Nc3ccccc32)c[nH]1 [drawing 688] | 0.0102 | 0.003171 | 0.1245 | −0.03494 | 0.1171 | 0.02067 | 
7 | Cc1ccc2c(c1)/C(=C/c1ccccc1C)C(=O)N2 [drawing 558] | 0.05088 | −0.09662 | −0.07445 | 0.08015 | −0.3519 | −0.675 | 
8 | CN1C(=O)N(CC(=O)N2CCN(S(=O)(=O)c3ccc(Cl)s3)CC2)C(=O)C12CCCCC2 [drawing 701] | 0.1065 | 0.03367 | 0.1338 | 0.2611 | −0.306 | −0.5075 | 
9 | Oc1nc2ccccc2nc1-c1c[nH]c2ccccc12 [drawing 625] | −0.1557 | −0.2438 | −0.1427 | −0.1781 | −0.49 | −0.6715 | 
10 | Cc1cc(C2CCCCC2)n(O)c(=O)c1 [Ciclopirox ethanolamine, ciclopirox ethanolamine, reference compound] |  |  |  |  |  |  | EC50 (Mus musculus, enhancement of α7 integrin expression in muscle cells, read-out: EC50): 0.6 µg/mL; Optimal Concentration (enhancement of α7 integrin expression in muscle cells): 4 µg/mL
11 | O=C(Nc1cc(-c2nc3ccccc3s2)ccc1Cl)c1ccc2c(c1)OCO2 [drawing 626] | −0.04702 | −0.1444 | 0.02573 | 0.1301 | −0.1679 | −0.4411 | 
12 | NS(=O)(=O)c1ccc(NC(=O)CN2CCc3ccccc32)cc1 [drawing 654] | −0.2007 | −0.06684 | 0.3068 | 0.002758 | −0.1257 | −0.1195 | 
13 | CS(=O)(=O)N(Cc1ccc(C(=O)NC2CCCC2)cc1)c1ccccc1 [Compound 63] |  |  |  |  |  |  | AC50 (Mus musculus): 10 µM; Fit HillSlope: 3.1925; Fit Zero Activity [%]: −1.7425%; Fit Curve Class: 2.1; Score: 45
14 | CN(CCC1CCCCO1)C(=O)CCc1nnc(CCCCc2ccccc2)o1 (stereo not shown) [drawing 615] | −0.05982 | −0.07538 | −0.00182 | −0.02349 | 0.02509 | −0.00588 | 
15 | CN(C)c1ccnc2sc(C(N)=O)c(N)c12 [Compound 87] |  |  |  |  |  |  | Fit HillSlope: 2.1211; Fit Zero Activity [%]: 21.3502%; Fit Curve Class: 2.2; Score: 44

Source: patent publication US10028992B2, “Methods of treating muscular dystrophy” (BOARD OF REGENTS OF THE NEVADA SYSTEM OF HIGHER EDUCATION …, priority 2012, dated 2018)
